From article PMC2994747, “Molecular Characterization of c-Abl/c-Src Kinase Inhibitors Targeted against Murine Tumour Progenitor Cells that Express Stem Cell Markers” (PLoS ONE, 2010)

Tests used:
[1] = system: BetaD5; test: Cell cycle analysis by flow cytometry; type: cell-based, mouse; conditions: IC50 concentration, 96 h
Procedure, shortened: (§1)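 Cells trypsin-harvested, PBS-washed, stained with CycleTEST PLUS DNA kit (solution A 10 min at room temperature, then solutions B and C, C step at 4°C in dark). DNA content read by flow cytometry on FACScan.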

[2] = system: GammaA3; test: Cell cycle analysis by flow cytometry; type: cell-based, mouse; conditions: IC50 concentration, 96 h
Procedure, shortened: as §1

[3] = system: GammaD12; test: Cell cycle analysis by flow cytometry; type: cell-based, mouse; conditions: IC50 concentration, 96 h
Procedure, shortened: as §1

[4] = system: A2C12; test: Western blot, semi-quantitative protein expression; type: cell-based, mouse
Method: (§2) For the Western Blot analysis, cells were rinsed and lysed as previously described. An amount of 25 µg protein was used for SDS-PAGE. Antibodies for c-Abl (sc-131), Actin (sc-1616), Cdc2-p34 (sc-8395), EPS15 (sc-1840), FAK (sc-558), c-Fos (sc-52), p38 (sc-7972), p53 (sc-6243) and STAT5 (sc-835x) were obtained from Santa Cruz (Santa Cruz Biotechnology, Heidelberg, Germany), while c-Src (2109) and phospho-Src Y416 (2101) were purchased from Cell Signaling (Cell Signaling Technology, Frankfurt a. M., Germany). The EGFR (06-847), phospho-EGFR Y992 (07-821) and phospho-EGFR Y1045 (04-284) stem from Upstate (Upstate, Schwalbach, Germany) and the hnRNP-K (A300-676A) from Bethyl Labs (Bethyl Laboratories, Montgomery, Texas, USA). Finally p73 (IMG-246) was supplied by Imgenex (Imgenex, Hamburg, Germany). Depending on the primary antibody the secondary antibodies were either horseradish peroxidase-conjugated anti-mouse (AP 160P), anti-rabbit (AP 132P) or anti-sheep (AP 147P) (Chemicon, Schwalbach, Germany).
(§3) Semi-quantitative analysis were carried out with Kodak 1D Image Analysis Software in reference to the vehicle treated control cells (see supplementary table S7).

[5] = system: BetaD5; test: Western blot, semi-quantitative protein expression; type: cell-based, mouse
Method: as §2, §3

[6] = system: GammaA3; test: Western blot, semi-quantitative protein expression; type: cell-based, mouse
Method: as §2, §3

[7] = system: GammaD12; test: Western blot, semi-quantitative protein expression; type: cell-based, mouse
Method: as §2, §3

[8] = system: A549; test: Western blot, semi-quantitative protein expression; type: cell-based, human
Method: as §2, §3

[9] = system: CaCo2; test: Western blot, semi-quantitative protein expression; type: cell-based, human
Method: as §2, §3

[10] = system: human and murine cell lines; test: Western blot, statements over human and murine cell lines; type: cell-based; conditions: lung cancer cell lines; IC50 concentration, 96 h
Method: as §2, §3

Fc1ccccc1CNc1ncnc2c1cnn2CC(Cl)c1ccc(Br)cc1 (stereo not drawn) [Si162]
Cells in G1 phase [1]: 22.8%
Cells in G2 phase [1]: 42.8%
Cells in S phase [1]: 34.5%
Cells in G1 phase [2]: 40.3%
Cells in G2 phase [2]: 31.5%
Cells in S phase [2]: 28.1%
Cells in G1 phase [3]: 24.1%
Cells in G2 phase [3]: 12.4%
Cells in S phase [3]: 63.5%
Actin protein expression [4]: 99
EGFR Y992-p protein expression [4]: 16
EGFR Y1045-p protein expression [4]: 0.417
EGFR protein expression [4]: 23
EPS15 protein expression [4]: 104
FAK protein expression [4]: 52
STAT5 protein expression [4]: 34
c-Abl protein expression [4]: 50
c-Fos protein expression [4]: 60
c-Src protein expression [4]: 121
hnRNP-K protein expression [4]: 60
p38 protein expression [4]: 20
p53 protein expression [4]: 131
p73 protein expression [4]: 40
Actin protein expression [5]: 91
EGFR Y992-p protein expression [5]: 145
EGFR Y1045-p protein expression [5]: 733
EGFR protein expression [5]: 92
EPS15 protein expression [5]: 554
FAK protein expression [5]: 124
STAT5 protein expression [5]: 182
c-Abl protein expression [5]: 24
c-Fos protein expression [5]: 122
c-Src Y416-p protein expression [5]: 36
c-Src protein expression [5]: 110
hnRNP-K protein expression [5]: 20
p38 protein expression [5]: 39
p53 protein expression [5]: 443
c-Src autophosphorylation (Tyr416), in words ([5]; IC50 concentration, 96 h): inhibition of c-Src autophosphorylation
Actin protein expression [6]: 83
EGFR Y992-p protein expression [6]: 77
EGFR Y1045-p protein expression [6]: 69
EGFR protein expression [6]: 1
EPS15 protein expression [6]: 90
FAK protein expression [6]: 111
STAT5 protein expression [6]: 46
c-Abl protein expression [6]: 1.79
c-Src Y416-p protein expression [6]: 205
c-Src protein expression [6]: 21
hnRNP-K protein expression [6]: 5
p38 protein expression [6]: 64
p53 protein expression [6]: 323
Actin protein expression [7]: 91
EGFR Y992-p protein expression [7]: 237
EGFR Y1045-p protein expression [7]: 309
EGFR protein expression [7]: 65
EPS15 protein expression [7]: 179
FAK protein expression [7]: 108
STAT5 protein expression [7]: 82
c-Abl protein expression [7]: 195
c-Fos protein expression [7]: 123
c-Src Y416-p protein expression [7]: 105
c-Src protein expression [7]: 56
hnRNP-K protein expression [7]: 85
p38 protein expression [7]: 43
p53 protein expression [7]: 154
Actin protein expression [8]: 62
Cdc2-p34 protein expression [8]: 5.47
EGFR Y1045-p protein expression [8]: 7
EGFR protein expression [8]: 0.418
EPS15 protein expression [8]: 10
FAK protein expression [8]: 46
STAT5 protein expression [8]: 17
c-Abl protein expression [8]: 8.56
c-Fos protein expression [8]: 10
c-Src protein expression [8]: 49
hnRNP-K protein expression [8]: 39
p38 protein expression [8]: 19
p53 protein expression [8]: 48
p73 protein expression [8]: 10
c-Src autophosphorylation (Tyr416), in words ([8]; IC50 concentration, 96 h): inhibition of c-Src autophosphorylation
Actin protein expression [9]: 116
Cdc2-p34 protein expression [9]: 43
EGFR Y992-p protein expression [9]: 178
EGFR Y1045-p protein expression [9]: 131
EPS15 protein expression [9]: 42
FAK protein expression [9]: 52
STAT5 protein expression [9]: 69
c-Abl protein expression [9]: 114
c-Fos protein expression [9]: 35
c-Src Y416-p protein expression [9]: 213
c-Src protein expression [9]: 88
hnRNP-K protein expression [9]: 62
p38 protein expression [9]: 29
p53 protein expression [9]: 55
p73 protein expression [9]: 43
Repression of FAK protein [10]: up to 50%
